Results: patent publication US7119073B2, “Peptides and their use as inhibitors of hepatitis C virus ns3 protease” (Istituto Di Ricerche Di Biologia Molecolare P. Angeletti SpA, priority 2001, dated 2006)
Read-outs that look alike come from different tables or passages of the source. Where a SMILES comes first, the peptide text is derived from it. [ ]: non-standard residue; d: D form. The star is where a group is joined. Dip = N[C@H](C(=O)O)C(c1ccccc1)c1ccccc1; Abu(4,4-F2) = N[C@@H](CC(F)F)C(=O)O; Cha = N[C@@H](CC1CCCCC1)C(=O)O; X1 = O=C(O)c1ccc(CCN*)cc1

Columns and labels:
[1] = biological target: T1, full length NS3 protein noncovalently complexed with the full-length NS4A cofactor protein (NS3/NS4A complex) (Hepatitis C virus genotype 1b, UniProt P26663); test: Full-length NS3-NS4A heterodimer protein assay (Assay A); type: biochemical, hepatitis C virus (HCV)
T1 construct: full length NS3 protein spanning residues 1027–1657 of the HCV polyprotein
Method: Full-Length NS3-NS4A Heterodimer Protein Assay (Assay A)
(Gallinari, P., Paolini, C., Brennan, D., Nardi, C., Steinkühler, C. and De Francesco, R. Modulation of hepatitis C virus NS3 protease and helicase activities through the interaction with NS4A. Biochemistry 38, 5620–5632, 1999)
In this assay the full length NS3 protein spanning residues 1027–1657 of the HCV polyprotein, noncovalently complexed with the full-length NS4A cofactor protein (residues 1658–1711) was used. Assays were performed in 60 μl of a buffer containing 50 mM Hepes pH 7.5, 0.15 M NaCl, 0.1% (v/v) Triton X-100, 15% (v/v) glycerol, 10 mM DTT, 2 nM NS3/NS4A complex. To this assay mix 10 μM (final concentration) of a peptide substrate corresponding to the NS5AB cleavage site and having the sequence of the NS5A-NS5B peptide, were added. Incubation times at 23° C. were adjusted to obtain <10% conversion. Reactions were stopped by the addition of 40 μl of 1% TFA. Cleavage was determined by HPLC using a Merck-Hitachi chromatograph equipped with an autosampler. 80 μl samples were injected on a Lichrospher C18 reversed phase cartridge column (4×74 mm, 5 μm, Merck) and fragments were separated using a 10–40% acetonitrile gradient at 5%/min using a flow rate of 2.5 ml/min. Peak detection was done by monitoring both the absorbance at 220 nm and tryptophan fluorescence (λex=280 nm, λem=350 nm). Cleavage products were quantitated by integration of chromatograms with respect to appropriate standards. Kinetic parameters were calculated from nonlinear least-squares fit of initial rates as a function of substrate concentration with the help of a Kaleidagraph software, assuming Michaelis-Menten kinetics.
Ki values of peptide inhibitors were calculated from substrate titration experiments performed in the presence of increasing amounts of inhibitor. Experimental data sets were simultaneously fitted to eg.1 using a multicurve fit macro with the help of a Sigmaplot software: V=(VmaxS)/(Km([…])+S); (eq.1) Alternatively, Ki values were derived from IC50 values, calculated using a four-parameter logistic function, according to eq.2: IC50=(1+S/Km)Ki (eq.2)

[2] = biological target: T2, NS3 protease domain complexed to a modified form of the NS4A peptide (Pep4AK) (Hepatitis C virus genotype 1b, UniProt P26663); test: HCV NS3 protease domain/NS4A cofactor peptide assay (Assay B); type: biochemical; conditions: NS3 protease domain/Pep4AK
T2 construct: NS3 protease domain (residues 1027–1206 of the HCV polyprotein)

[3] = Table 1, 4AB peptide substrate, read-out: Assay B

T2 sequence (P26663 1027-1206, other chains not shown): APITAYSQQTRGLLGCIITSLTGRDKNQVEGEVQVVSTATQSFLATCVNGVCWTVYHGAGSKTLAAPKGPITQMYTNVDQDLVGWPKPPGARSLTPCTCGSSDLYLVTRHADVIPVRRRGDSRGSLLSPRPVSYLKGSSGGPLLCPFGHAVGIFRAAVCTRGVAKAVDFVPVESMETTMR
T1 sequence (P26663 1027-1657): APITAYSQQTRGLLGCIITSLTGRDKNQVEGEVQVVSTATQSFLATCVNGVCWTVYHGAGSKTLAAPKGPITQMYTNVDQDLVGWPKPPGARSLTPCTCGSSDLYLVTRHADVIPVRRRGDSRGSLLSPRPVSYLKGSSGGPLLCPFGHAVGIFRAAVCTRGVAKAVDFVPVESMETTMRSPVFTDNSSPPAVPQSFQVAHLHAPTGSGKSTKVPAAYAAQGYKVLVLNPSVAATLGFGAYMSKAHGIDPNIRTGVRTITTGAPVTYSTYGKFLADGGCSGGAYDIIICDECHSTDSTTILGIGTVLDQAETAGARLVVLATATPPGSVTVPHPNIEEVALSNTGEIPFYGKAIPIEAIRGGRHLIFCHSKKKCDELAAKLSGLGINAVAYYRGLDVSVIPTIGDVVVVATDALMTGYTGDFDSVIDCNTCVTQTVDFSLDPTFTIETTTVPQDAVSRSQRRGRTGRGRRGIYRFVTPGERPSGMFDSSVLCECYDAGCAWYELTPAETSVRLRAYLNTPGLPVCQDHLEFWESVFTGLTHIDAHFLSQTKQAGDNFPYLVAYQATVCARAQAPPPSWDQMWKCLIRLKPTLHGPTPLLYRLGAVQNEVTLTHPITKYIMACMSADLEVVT
T1 sequence (P26663 1658-1711): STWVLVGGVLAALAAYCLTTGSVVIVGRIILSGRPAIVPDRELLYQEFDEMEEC

CC(C)COC(=O)NC(CCC(=O)O)C(=O)NC(CC(C)C)C(=O)NC(CS)C(=O)NCCc1ccc(CC(=O)O)cc1 (stereo not drawn) [Compound 154]
IC50 [1]: < 100 µM
IC50 [2, 3]: < 10 µM

CC(C)COC(=O)NC(CCC(=O)O)C(=O)NC(CC(C)C)C(=O)NC(CS)C(=O)NCCc1ccc(CCC(=O)O)cc1 (stereo not drawn) [Compound 156]
IC50 [1]: < 100 µM
IC50 [2, 3]: < 10 µM

CC(C)COC(=O)NC(CCC(=O)O)C(=O)NC(CC(C)C)C(=O)NC(CS)C(=O)NCCc1c(Cl)cccc1Cl (stereo not drawn) [Compound 164]
IC50 [1]: < 100 µM
IC50 [2, 3]: < 10 µM

COc1ccc(Br)cc1CCNC(=O)C(CS)NC(=O)C(CC(C)C)NC(=O)C(CCC(=O)O)NC(=O)OCC(C)C (stereo not drawn) [Compound 173]
IC50 [1]: < 100 µM
IC50 [2, 3]: < 10 µM

COC(=O)c1ccc(CCNC(=O)[C@H](CS)NC(=O)[C@H](CC(C)C)NC(=O)[C@H](CCC(=O)O)NC(=O)OCC(C)C)c(Cl)c1 [Compound 177]
IC50 [1]: < 100 µM
IC50 [2, 3]: < 10 µM

CC(C)COC(=O)N[C@@H](CCC(=O)O)C(=O)N[C@@H](CC(C)C)C(=O)N[C@@H](CS)C(=O)NCCc1ccc(C(=O)O)cc1Cl [Compound 178]
IC50 [1]: < 10 µM
IC50 [2, 3]: < 1 µM

CC(C)COC(=O)NC(CCC(=O)O)C(=O)NC(CC(C)C)C(=O)NC(CC(F)F)C(=O)NCCc1ccc(C(=O)O)cc1Cl (stereo not drawn) [Compound 180]
IC50 ([1]; Table 1, full-length NS3/NS4A, NS5A-NS5B peptide substrate, read-out: Assay A): < 10 µM
IC50 ([2]; Assay B, Table 1, 4AB peptide substrate): < 1 µM

CC(C)C[C@H](NC(=O)[C@H](CCC(=O)O)NS(=O)(=O)c1cccc2ccccc12)C(=O)N[C@@H](CS)C(=O)NCCc1ccccc1Cl [Compound 252]
IC50 [1]: < 10 µM
IC50 ([2]; Assay B, Table 2): < 10 µM

CC(=O)N[C@@H](CC(=O)O)C(=O)N[C@@H](CCC(=O)O)C(=O)N[C@H](C(=O)N[C@@H](CCC(=O)O)C(=O)N[C@@H](CC1CCCCC1)C(=O)N[C@@H](CC(F)F)C(=O)NCCc1ccc(C(=O)O)cc1)C(c1ccccc1)c1ccccc1 [Compound 321] (Ac-DE[Dip]E[Cha][Abu(4,4-F2)]-X1)
IC50 ([1]; Table 3, full-length NS3/NS4A, read-out: Assay A): < 1 µM
IC50 ([2]; Assay B, Table 3): < 1 µM
